ChEMBL document CHEMBL3044994, “Synthesis and evaluation of novel carbamate-substituted flavanone derivatives as potent acetylcholinesterase inhibitors and anti-amnestic agents” (Med Chem Res, 2013)
Active and inactive are the calls of the source. No cut-off for these calls is given here.

Legend:
Acetylcholinesterase = biological target: T1, Acetylcholinesterase (Rattus norvegicus, UniProt P37136); assay: Inhibition of AchE in Rattus norvegicus (rat) cortex homogenates by Ellman's method
T1 sequence (P37136 whole entry): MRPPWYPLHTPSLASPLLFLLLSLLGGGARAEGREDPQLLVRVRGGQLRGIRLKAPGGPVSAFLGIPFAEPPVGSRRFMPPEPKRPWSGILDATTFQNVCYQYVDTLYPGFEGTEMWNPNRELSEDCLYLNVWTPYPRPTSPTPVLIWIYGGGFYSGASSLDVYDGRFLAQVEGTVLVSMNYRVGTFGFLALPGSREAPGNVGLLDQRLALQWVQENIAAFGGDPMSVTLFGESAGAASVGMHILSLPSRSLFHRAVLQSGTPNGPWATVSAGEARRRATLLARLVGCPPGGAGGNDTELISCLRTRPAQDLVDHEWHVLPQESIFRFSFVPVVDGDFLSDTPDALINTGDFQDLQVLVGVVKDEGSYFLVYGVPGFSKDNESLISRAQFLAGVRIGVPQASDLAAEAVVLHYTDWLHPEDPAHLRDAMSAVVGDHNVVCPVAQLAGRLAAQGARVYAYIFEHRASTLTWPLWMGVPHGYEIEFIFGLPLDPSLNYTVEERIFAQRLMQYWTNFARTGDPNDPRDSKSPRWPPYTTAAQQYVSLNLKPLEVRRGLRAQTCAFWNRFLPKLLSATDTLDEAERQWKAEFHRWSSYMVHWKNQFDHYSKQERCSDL

Mus musculus [1] = assay: (§1) Antiamnestic activity in scopolamine-induced Swiss albino Mus musculus (mouse) memory deficit model assessed as increase in time spent in target quadrant at 25 mg/kg, ip administered 30 min prior to scopolamine challenge measured on day 5 by Morris water maze test relative to vehicle-treated control; type: functional, organism-based; set-up: dose 25 mg/kg
Mus musculus [2] = assay: Antiamnestic activity in scopolamine-induced Swiss albino Mus musculus (mouse) memory deficit model assessed as escape latency time at 10 mg/kg, ip administered 30 min prior to scopolamine challenge measured on day 4 by Morris water maze test (reference value: 78.7 +/- 5.7 secs); type: functional; conditions: route intraperitoneal
Mus musculus [3] = assay: Antiamnestic activity in scopolamine-induced Swiss albino Mus musculus (mouse) memory deficit model assessed as escape latency time at 10 mg/kg, ip administered 30 min prior to scopolamine challenge measured on day 1 by Morris water maze test (reference value: 89.7 +/- 3.8 secs); type: functional; conditions: route intraperitoneal
Mus musculus [4] = assay: Antiamnestic activity in scopolamine-induced Swiss albino Mus musculus (mouse) memory deficit model assessed as escape latency time at 5 mg/kg, ip administered 30 min prior to scopolamine challenge measured on day 1 by Morris water maze test (reference value: 89.7 +/- 3.8 secs); type: functional; conditions: route intraperitoneal
Mus musculus [5] = assay: as §1, with “2 to 10” for “25”; type: functional, organism-based
Mus musculus [6] = assay: Antiamnestic activity in scopolamine-induced Swiss albino Mus musculus (mouse) memory deficit model assessed as escape latency time at 2 mg/kg, ip administered 30 min prior to scopolamine challenge measured on day 4 by Morris water maze test (reference value: 78.7 +/- 5.7 secs); type: functional; conditions: route intraperitoneal
Mus musculus [7] = assay: Antiamnestic activity in scopolamine-induced Swiss albino Mus musculus (mouse) memory deficit model assessed as escape latency time at 5 mg/kg, ip administered 30 min prior to scopolamine challenge measured on day 4 by Morris water maze test (reference value: 78.7 +/- 5.7 secs); type: functional; conditions: route intraperitoneal
Mus musculus [8] = assay: Antiamnestic activity in scopolamine-induced Swiss albino Mus musculus (mouse) memory deficit model assessed as escape latency time at 2 mg/kg, ip administered 30 min prior to scopolamine challenge measured on day 1 by Morris water maze test (reference value: 89.7 +/- 3.8 secs); type: functional; conditions: route intraperitoneal

Row | SMILES | IC50 (Acetylcholinesterase) [µM] | also measured
1 | COc1cc(OC)c2c(c1)OC(c1cccc(OC(=O)Nc3ccccc3)c1)CC2=O (stereo unspecified) | 0.0196 | –
2 | COc1cc(OC)c2c(c1)OC(c1ccc(OC(=O)Nc3ccccc3)c(OC)c1)CC2=O (stereo unspecified) | 0.0128 | –
3 | COc1cc2c(cc1OC)C(=O)C(CC1CCN(Cc3ccccc3)CC1)C2 (stereo unspecified) | – | Activity (Mus musculus [1]): Active
4 | COc1ccc(C2CC(=O)c3ccccc3O2)cc1O (stereo unspecified) | 0.14 | –
5 | COc1cc(OC)c2c(c1)OC(c1ccc(O)cc1)CC2=O (stereo unspecified) | 0.118 | –
6 | O=C1CC(c2cccc(O)c2)Oc2ccccc21 (stereo unspecified) [3'-HYDROXYFLAVANONE] | 0.147 | –
7 | COc1cc(OO)cc2c1C(=O)CC(c1ccccc1OC(=O)Nc1ccccc1)O2 (stereo unspecified) | 0.0215 | –
8 | COc1cc(C2CC(=O)c3ccccc3O2)cc(OC)c1OC(=O)Nc1ccccc1 (stereo unspecified) | 0.0193 | –
9 | COc1cc(OC)c2c(c1)OC(c1ccc(O)c(OC)c1)CC2=O (stereo unspecified) | 0.112 | –
10 | O=C(Nc1ccccc1)Oc1ccc(C2CC(=O)c3ccccc3O2)cc1 (stereo unspecified) | 0.0367 | –
11 | COc1ccc(C2CC(=O)c3ccccc3O2)cc1OC(=O)Nc1ccccc1 (stereo unspecified) | 0.0276 | –
12 | COc1cc(OC)c2c(c1)OC(c1ccc(OC(=O)Nc3ccccc3)cc1)CC2=O (stereo unspecified) | 0.0188 | –
13 | COc1cc(OC)c2c(c1)OC(c1ccc(OC)c(OC(=O)Nc3ccccc3)c1)CC2=O (stereo unspecified) | 0.0163 | –
14 | O=C1CC(c2ccccc2O)Oc2ccccc21 (stereo unspecified) [2'-HYDROXY-FLAVANONE] | 0.149 | –
15 | COc1cc(OC)c2c(c1)OC(c1cc(OC)c(OC(=O)Nc3ccccc3)c(OC)c1)CC2=O (stereo unspecified) | 0.0099 | Time (Mus musculus [2]): 45.4 s; Time (Mus musculus [3]): 83.1 s; Time (Mus musculus [4]): 87.5 s; Activity (Mus musculus [5]): Active; Time (Mus musculus [6]): 72.1 s; Time (Mus musculus [7]): 66.4 s; Time (Mus musculus [8]): 84.3 s
16 | COc1cc(C2CC(=O)c3ccccc3O2)ccc1O (stereo unspecified) | 0.138 | –
17 | COc1cc(OC)c2c(c1)OC(c1cc(OC)c(O)c(OC)c1)CC2=O (stereo unspecified) | 0.107 | –
18 | COc1cc(C2CC(=O)c3ccccc3O2)cc([N+](=O)[O-])c1O (stereo unspecified) | 0.144 | –
19 | COc1cc(OC)c2c(c1)OC(c1cccc(O)c1)CC2=O (stereo unspecified) | 0.119 | –
20 | COc1cc(OC)c2c(c1)OC(c1cc(OC)c(O)c([N+](=O)[O-])c1)CC2=O (stereo unspecified) | 0.116 | –
21 | COc1cc(OC)c2c(c1)OC(c1ccc(OC)c(O)c1)CC2=O (stereo unspecified) | 0.114 | –
22 | COc1cc(OC)c2c(c1)OC(c1ccccc1O)CC2=O (stereo unspecified) | 0.12 | –
23 | O=C(Nc1ccccc1)Oc1cccc(C2CC(=O)c3ccccc3O2)c1 (stereo unspecified) | 0.0388 | –
24 | O=C(Nc1ccccc1)Oc1ccccc1C1CC(=O)c2ccccc2O1 (stereo unspecified) | 0.0399 | –
25 | COc1cc(OC)c2c(c1)OC(c1cc(OC)c(OC(=O)Nc3ccccc3)c([N+](=O)[O-])c1)CC2=O (stereo unspecified) | 0.0182 | –
26 | COc1cc(C2CC(=O)c3ccccc3O2)cc([N+](=O)[O-])c1OC(=O)Nc1ccccc1 (stereo unspecified) | 0.0305 | –
27 | COc1cc(C2CC(=O)c3ccccc3O2)ccc1OC(=O)Nc1ccccc1 (stereo unspecified) | 0.0219 | –
28 | COc1cc(C2CC(=O)c3ccccc3O2)cc(OC)c1O (stereo unspecified) | 0.131 | –
29 | O=C1CC(c2ccc(O)cc2)Oc2ccccc21 (stereo unspecified) [4'-HYDROXY-FLAVANONE] | 0.145 | –
